According to patent publication US8580975B2, “Synthesis of macrocyclic cancer chemotherapy agents and methods of use” (Purdue Research Foundation, priority 2008, dated 2013):

What was measured:
[1] = tested on: P388 murine leukemia cells; test: cell proliferation assay; type: cell-based
[2] = tested on: P388 murine leukemia cells; conditions: background, natural peloruside A; cited from earlier work
[3] = Mus musculus, P388 murine leukemia cells

Compound	IC50 ([1]; P388 murine leukemia cells) [nM]	IC50 [1, 3] [nM]	also measured
epi-C-11 Peloruside A	10	–	–
(+)-Peloruside A [reference compound]	10	–	IC50 value, antitumor activity against P388 murine leukemia cells [2]: 0.01 µg/mL
CC[C@H](/C=C(/C)[C@@H]1C[C@@H](OC)C[C@H](O)C(C)(C)[C@@]2(O)O[C@@H](C[C@@H](OC)CC(=O)O1)C[C@@H](O)[C@H]2O)CO [2-des-Hydroxy-7-des-methoxy-7-hydroxy-Peloruside A]	–	320	–
CC[C@H](/C=C(/C)[C@@H]1C[C@@H](OC)C[C@H](O)C(C)(C)[C@@]2(O)O[C@@H](C[C@@H](OC)CC(=O)O1)C[C@@H](OC)[C@H]2O)CO [2-des-Hydroxy-Peloruside A]	–	120	–
CC[C@H](/C=C(/C)[C@@H]1C[C@@H](OC)C[C@H](O)C(C)(C)C(=O)[C@H](O)[C@H](OC)C[C@@H](O)C[C@@H](OC)CC(=O)O1)CO [Open Chain Isomer Of 2-Des-Hydroxy-Peloruside A]	–	–	IC50 ([1]; Mus musculus, P388): > 5000 nM
